Source: patent US5759768A, “Assays for factors affecting circularization of DNA, assays for factors affecting DNA integration, factors, and uses thereof” (priority 1995, dated 1998)
Where two headings read alike, the source gives them in different places.

Experiments:
[1] = system: viral DNA integrated into .phi.X174 target DNA; assay type: biochemical, HIV-1; settings: for Relative activity, % of standard: target DNA 10 μg/ml
Method: (§1) The chronically HIV-1 infected Molt IIIB human T cell line (HTLV IIIB virus strain) was the source of virus for cell-free infections. This human T cell line constitutively produces a low level of the HTLV-111B strain of HIV-1. Culture supernatant containing a high concentration of virus was prepared by incubating 300×10^6 Molt IIIB cells in 50 ml fresh RPMI 1640 medium containing 20% fetal calf serum and 10 ng of phorbol 12-myristate 13-acetate per ml for 20-24 hours. […] Cytoplasmic extracts (3 ml) were prepared 4-4.5 hours post-infection, by a modification of the procedure of Brown et al., Cell 49: 342-356 (1987).
(§2) At specified times after infection, cells were washed twice with buffer K (20 mM Hepes, pH 7.4, 150 mM KCl, 5 mM MgCl2, 1 mM dithiothreitol, […]) and then lysed at a concentration of 33×10^6 cells per ml in the same buffer containing 0.025% digitonin or 0.025% Triton X-100. Cells were extracted for 10 minutes at room temperature, and the lysate was centrifuged at 1000×g for 3 minutes, and is referred to as "cytoplasmic extract". Cytoplasmic extract was the source of viral DNA for analyses in the assays described below. The pellet from the initial low-speed centrifugation contained cell debris and intact nuclei and is called the "nuclear pellet". Cell extracts from uninfected SupT1 cells were prepared in the same manner.
(§3) DNA samples were layered on 0.8% agarose gels and electrophoresed at 1 V/cm for 15 hour in Tris/acetate/EDTA buffer. After electrophoresis, DNA was blotted by capillary action onto nitrocellulose (0.45 μm, Schleicher & Schuell).
In Vitro Integration Reaction
Pst I-linearized (replicative form III) .phi.X174 DNA, relaxed circular (replicative form II) .phi.X174 DNA, and single-stranded M13 DNA were used as targets for the in vitro integration of viral DNA. Target DNA was added to cytoplasmic extracts of intected SupT1 cells to a concentration of 10 μg/ml, and reaction mixtures were incubated at […]. Reactions, were stopped by the addition of SDS and proteinase K.
Cytoplasmic extracts prepared from SupT1 cells 4 hours after infection with HIV-1 were incubated with exogenously added target DNA under integration reaction conditions. Products of the reactions were analyzed by Southern blot hybridization. The time course of integration into linear .phi.X174 DNA target was determined. Target DNA was added to the extract and the reaction was stopped after 0,5,15,30, or 45 minutes of incubation at 37° C. (FIG. 11, lanes a-e, respectively). Purified linear viral DNA was incubated for 1 hour at 37° C. with cytoplasmic extract prepared from uninfected SupT1 cells (lane f). […] Arrows in the Figure indicate the positions of viral DNA products. L, linear viral DNA:I, integration product. Integration was detected by the shift of linear viral DNA on Southern blots from the characteristic 9.7-kilobase (kb) position to a position corresponding to viral DNA plus target DNA.

[2] = system: linear viral DNA (circularization); assay type: biochemical, HIV-1
Method: as §1, §2
Viral DNA present in cytoplasmic extracts was deproteinated by incubation with proteinase K (1 mg/ml)/10 mM EDTA/0.5% SDS for 1 hour at 55° C. Samples were extracted successively with phenol/chloroform [1:1 (vol/vol)] and chloroform. DNA was ethanol-precipitated, washed with 70% ethanol, resuspended in 10 mM Tris.HCI (pH 7.4), and treated with RNase A (20 μpg/ml)for 1 hour at […]. before analysis by agarose gel electrophoresis and Southern blotting.
as §3
Cell extracts were prepared from cells four to five hours after infection with HIV-1, using the above-described methods to yield fully functional viral preintegration complexes. […] In all cases, a HIV-1 LTR-containing DNA fragment was used as a hybridization probe. Therefore, only LTR-containing DNA fragments are detected. […] Lane 5: Unintegrated viral DNA prepared by Hirt extraction of SupT1 cells infected 24 hours earlier with concentrated HIV-1. […] Viral DNA was purified from extracts incubated with 1 mM ATP for 15 minutes (lanes 1 and 4), with 1 mM ATP for 45 minutes (lanes 3 and 6), or with 1 mM ATPγS for 45 minutes (lanes 2 and 5). Lanes 1-3: uncut viral DNA; lanes 4-6: viral DNA was cut with SalI prior to electrophorosis. Lane 7: linear viral DNA, prepared from untreated extracts was digested with SalI prior to electrophorosis. Lane 8: unintegrated viral DNA prepared by Hirt extraction of infected cells, as described with respect to FIG. 14, digested with SalI prior to electrophoresis. […] Lanes 1-3. Viral DNA prepared from extracts treated with 1 mM ATP for 15 minutes, 30 minutes and 45 minutes, respectively. Lane 4: Viral DNA prepared from extract treated with 1 mM ATPγS for 45 minutes. Lanes 5-7: products of reactions shown in lanes 1-3, respectively, digested with SalI and PstI prior to electrophoresis. Lane 8: SalI, PstI digestion of viral DNA prepared from extract treated with 1 mM ATP for 90 minutes. Lane 9: SalI, PstI digestion of reaction products shown in lane 4. Lane 10: SalI, PstI digestion of unintegrated viral DNA prepared by Hirt extraction of infected cells.

O=C(O)CN(CCN(CC(=O)O)CC(=O)O)CC(=O)O [EDTA]
detectable integration in vitro ([1]; 1 mM EDTA, buffer devoid of added MgCl2): absence of detectable integration
Relative activity, % of standard ([1]; -Mg2+/+EDTA): 0 % of standard
detectable circle formation [2]: abolished detectable circle formation

[Cl-].[K+] [KCl]
Relative activity, % of standard ([1]; KCl 100 mM): 85 % of standard
detectable integration in vitro ([1]; KCl 250 mM or greater): completely abolished detectable integration
Relative activity, % of standard ([1]; KCl 250 mM): 0 % of standard
KCl concentration of most efficient formation of 1-LTR circles ([2]; 1 mM ATP, 37° C., 90 min): 125 mM
circular forms at KCl concentration ([2]; 100 mM KCl, 1 mM ATP, 90 min): 1-LTR circles were formed almost exclusively
circular forms at higher salt concentrations ([2]; higher KCl concentrations (lane 6: 250 mM), 1 mM ATP, 90 min): most entirely of the 2-LTR form
1-LTR [KCl] optimum ([2]; table): 125 mM
Autointegration [KCl] optimum ([2]; table): 150 to 175 mM
